Results from ChEMBL document CHEMBL5131385, “Novel piperazine based benzamide derivatives as potential anti-glioblastoma agents inhibiting cell proliferation and cell cycle progression” (Eur J Med Chem, 2022).
pIC50: −log10 of the molar value. Activity calls are given as the source filed them. The rule behind the calls is not given here.

Legend:
[1] = Antiproliferative activity against human U-87 MG cells assessed as inhibition of cell proliferation measured after 72 hrs by CCK8 assay; assay type: functional, cell-based, U-87MG ATCC
[2] = test system: U-251; test: Antiproliferative activity against human U-251 cells assessed as inhibition of cell proliferation measured after 72 hrs by CCK8 assay; assay type: functional, cell-based; conditions: U-251, 72 h
[3] = test system: C6; test: Antiproliferative activity against rat C6 cells assessed as inhibition of cell proliferation measured after 72 hrs by CCK8 assay; assay type: functional, cell-based; conditions: C6, 72 h
[4] = test system: U-87MG ATCC; test: Antitumor activity against human U-87 MG cells xenografted in BALB/c mouse assessed as decrease in tumor weight at 10 mg/kg,ip bid for 1 month; assay type: functional, organism-based; conditions: time 1.0 months
[5] = Induction of apoptosis in human U-87 MG cells assessed as early apoptotic cells at 1.20 uM incubated for 72 hrs by Annexin V-FITC/PI staining based flow cytometry method (reference value: 2.53 %); assay type: functional, U-87MG ATCC; conditions: dose 1.2 µM
[6] = test system: U-87MG ATCC; test: Antitumor activity against human U-87 MG cells xenografted in BALB/c mouse assessed as decrease in tumor volume at 10 mg/kg,ip bid for 1 month; assay type: functional, organism-based; conditions: time 1.0 months
[7] = test system: U-251; test: Induction of apoptosis in human U-251 cells assessed as late apoptotic cells at 6 uM incubated for 72 hrs by Annexin V-FITC/PI staining based flow cytometry method (Rvb =1.31 %); assay type: functional
[8] = test system: U-251; test: Induction of apoptosis in human U-251 cells assessed as early apoptotic cells at 6 uM incubated for 72 hrs by Annexin V-FITC/PI staining based flow cytometry method (Rvb =1.96 %); assay type: functional
[9] = test system: U-251; test: Induction of apoptosis in human U-251 cells assessed as necrotic cells at 6 uM incubated for 72 hrs by Annexin V-FITC/PI staining based flow cytometry method (Rvb =0.51 %); assay type: functional
[10] = test system: U-251; test: Induction of apoptosis in human U-251 cells assessed as viable cells at 6 uM incubated for 72 hrs by Annexin V-FITC/PI staining based flow cytometry method (reference value: 96.22 %); assay type: functional; conditions: read-out: Activity
[11] = Induction of apoptosis in human U-87 MG cells assessed as late apoptotic cells at 1.20 uM incubated for 72 hrs by Annexin V-FITC/PI staining based flow cytometry method (reference value: 0.42 %); assay type: functional, U-87MG ATCC; conditions: dose 1.2 µM
[12] = Induction of apoptosis in human U-87 MG cells assessed as viable cells at 1.20 uM incubated for 72 hrs by Annexin V-FITC/PI staining based flow cytometry method (reference value: 96.84 %); assay type: functional, U-87MG ATCC; conditions: read-out: Activity
[13] = Induction of apoptosis in human U-87 MG cells assessed as necrotic cells at 1.20 uM incubated for 72 hrs by Annexin V-FITC/PI staining based flow cytometry method (reference value: 0.21 %); assay type: functional, U-87MG ATCC; conditions: dose 1.2 µM

CS(=O)(=O)N1CCN(c2ccccc2C(=O)Nc2ccc(CNC(=O)OCc3cccnc3)cc2)CC1
pIC50 [1]: 5.99
pIC50 [2]: 5.27
pIC50 [3]: 6.07

O=C(NCc1ccc(NC(=O)c2ccccc2N2CCOCC2)cc1)OCc1cccnc1
pIC50 [1]: 6.05
pIC50 [2]: 5.21
pIC50 [3]: 5.32

COCCN1CCN(c2ccc(Cl)cc2C(=O)Nc2ccc(CNC(=O)OCc3cccnc3)cc2)CC1
pIC50 [1]: 6.00
pIC50 [2]: 4.98
pIC50 [3]: 5.75

O=C(NCc1ccc(NC(=O)c2ccccc2N2CCN(CCF)CC2)cc1)OCc1cccnc1
pIC50 [1]: 6.39
pIC50 [2]: 5.23
pIC50 [3]: 6.34

COCCN1CCN(c2c(C)cccc2C(=O)Nc2ccc(CNC(=O)OCc3cccnc3)cc2)CC1
pIC50 [1]: 6.00
pIC50 [2]: 5.03
pIC50 [3]: 6.36

Cn1nnc2c(C(N)=O)ncn2c1=O [TEMOZOLOMIDE]
Activity [4]: Active
Activity [5]: 2.5%
pIC50 [1]: < 4.52
Activity [6]: Active
Activity [7]: 1.73%
pIC50 [2]: < 4.52
Activity [8]: 1.6%
Activity [9]: 0.49%
viability at 6 µM [10]: 96.2%
pIC50 [3]: < 4.52
Activity [11]: 0.98%
viability at 1.2 µM [12]: 96.2%
Activity [13]: 0.27%

COCCN1CCN(c2ccc(-c3ccccc3)cc2C(=O)Nc2ccc(CNC(=O)OCc3cccnc3)cc2)CC1
pIC50 [1]: < 4.52
pIC50 [2]: < 4.52
pIC50 [3]: < 4.52

Nc1ccccc1NC(=O)c1ccc(CNC(=O)OCc2cccnc2)cc1 [ENTINOSTAT]
pIC50 [1]: 5.36
pIC50 [2]: < 4.52
pIC50 [3]: 6.48

COCCN1CCN(c2ccc(Br)cc2C(=O)Nc2ccc(CNC(=O)OCc3cccnc3)cc2)CC1
pIC50 [1]: 5.58
pIC50 [2]: 4.61
pIC50 [3]: 5.58

CN1CCN(c2ccccc2C(=O)Nc2ccc(CNC(=O)OCc3cccnc3)cc2)CC1
pIC50 [1]: 5.90
pIC50 [2]: 5.20
pIC50 [3]: 6.28

O=C(NCc1ccc(NC(=O)c2ccccc2N2CCN(CCO)CC2)cc1)OCc1cccnc1
pIC50 [1]: 6.19
pIC50 [2]: 5.49
pIC50 [3]: 6.54

CC(C)N1CCN(c2ccccc2C(=O)Nc2ccc(CNC(=O)OCc3cccnc3)cc2)CC1
pIC50 [1]: 6.60
pIC50 [2]: 5.22
pIC50 [3]: 6.39

COCCN1CCN(c2ccc(C)cc2C(=O)Nc2ccc(CNC(=O)OCc3cccnc3)cc2)CC1
pIC50 [1]: 5.72
pIC50 [2]: 4.90
pIC50 [3]: 5.89

COCCN1CCN(c2cccc(F)c2C(=O)Nc2ccc(CNC(=O)OCc3cccnc3)cc2)CC1
pIC50 [1]: 5.40
pIC50 [2]: 4.60
pIC50 [3]: 6.10

COCCN1CCN(c2cc(C)ccc2C(=O)Nc2ccc(CNC(=O)OCc3cccnc3)cc2)CC1
pIC50 [1]: 6.28
pIC50 [2]: 5.53
pIC50 [3]: 6.05

O=C(NCc1ccc(NC(=O)c2ccccc2N2CCN(C3COC3)CC2)cc1)OCc1cccnc1
pIC50 [1]: 6.31
pIC50 [2]: 5.63
pIC50 [3]: 6.24

COCCN1CCN(c2cc(F)ccc2C(=O)Nc2ccc(CNC(=O)OCc3cccnc3)cc2)CC1
pIC50 [1]: 6.28
pIC50 [2]: 5.64
pIC50 [3]: 6.66

O=C(NCc1ccc(NC(=O)c2ccccc2N2CCN(C3CC3)CC2)cc1)OCc1cccnc1
pIC50 [1]: 5.98
pIC50 [2]: 5.57
pIC50 [3]: 5.95

COCCN1CCN(c2ccc(N)cc2C(=O)Nc2ccc(CNC(=O)OCc3cccnc3)cc2)CC1
pIC50 [1]: 6.25
pIC50 [2]: 5.40
pIC50 [3]: 6.59

O=C(NCc1ccc(NC(=O)c2ccccc2N2CCN(C3CCC3)CC2)cc1)OCc1cccnc1
pIC50 [1]: 6.21
pIC50 [2]: 5.39
pIC50 [3]: 5.99

CCCN1CCN(c2ccccc2C(=O)Nc2ccc(CNC(=O)OCc3cccnc3)cc2)CC1
pIC50 [1]: 6.38
pIC50 [2]: 5.17
pIC50 [3]: 6.44

COCCN1CCN(c2ccccc2C(=O)Nc2ccc(CNC(=O)OCc3cccnc3)cc2)CC1
pIC50 [1]: 6.40
pIC50 [2]: 5.47
pIC50 [3]: 6.62

CCN1CCN(c2ccccc2C(=O)Nc2ccc(CNC(=O)OCc3cccnc3)cc2)CC1
pIC50 [1]: 6.37
pIC50 [2]: 5.34
pIC50 [3]: 6.44

COCCN1CCN(c2ccc(C(F)(F)F)cc2C(=O)Nc2ccc(CNC(=O)OCc3cccnc3)cc2)CC1
pIC50 [1]: 5.07
pIC50 [2]: < 4.52
pIC50 [3]: 4.86

O=C(NCc1ccc(NC(=O)c2ccccc2N2CCN(CC3CC3)CC2)cc1)OCc1cccnc1
pIC50 [1]: 5.97
pIC50 [2]: 4.97
pIC50 [3]: 6.10

COCCN1CCN(c2ccc(NC(=O)OC(C)(C)C)cc2C(=O)Nc2ccc(CNC(=O)OCc3cccnc3)cc2)CC1
pIC50 [1]: < 4.52
pIC50 [2]: < 4.52
pIC50 [3]: < 4.52

COCCN1CCN(c2ccc(OC)cc2C(=O)Nc2ccc(CNC(=O)OCc3cccnc3)cc2)CC1
pIC50 [1]: 5.46
pIC50 [2]: 4.69
pIC50 [3]: 5.98
